Drawing on US20240132464A1, “HETEROCYCLIC COMPOUNDS AS E3 LIGASE INHIBITORS” (Accutar Biotechnology Inc., priority 2022, published 2024), this text covers IC50 for 30 compounds.

A value given as a limit tells only on which side of the number the result lay.

The target of this assay is T1, GID4 (Uniprot ID: Q81VV7, residues 124-289) (Homo sapiens, UniProt Q8IVV7).
T1 construct: GID4 (Uniprot ID: Q81VV7, residues 124-289)
T1 sequence (Q8IVV7 124-289): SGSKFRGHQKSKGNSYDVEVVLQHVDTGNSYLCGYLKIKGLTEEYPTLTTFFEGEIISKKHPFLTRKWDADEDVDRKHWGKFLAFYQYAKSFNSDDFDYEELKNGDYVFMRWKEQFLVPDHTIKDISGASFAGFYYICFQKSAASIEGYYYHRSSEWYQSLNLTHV
The assay can be described thus: GID4 competitive binding assay (AlphaScreen, GID4/degron peptide PGLW). The following applies: 24 nM GID4, 48 nM biotinylated degron peptide PGLW, 4° C., read-out: IC50 (Inhibition of GID4/Degron binding by test compounds). In outline:
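Displacement of biotin-tagged degron tetrapeptide PGLW (48 nM) from C-terminally 6His-tagged GID4 124-289 (24 nM) read by AlphaScreen proximity signal. Compound incubation 2 h, then beads 1 h, all at 4 °C, pH 7.5, 2% DMSO final; background-corrected inhibition fitted with variable slope for IC50.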
With `Nc1cc(N2CCCC(c3cnc4ncccn34)C2)nc(N)n1` (stereo not drawn) [Compound 241, 6-(3-(imidazo[1,2-a]pyrimidin-3-yl)piperidin-1-yl)pyrimidine-2,4-diamine], the IC50 is more than 5000 nM. Consider `CC(C)c1cc(N2CCCC(c3cnc4c(F)cc(F)cn34)C2)nc(N)n1` (stereo not drawn) [Compound 242, 4-(3-(6,8-difluoroimidazo[1,2-a]pyridin-3-yl)piperidin-1-yl)-6-isopropylpyrimidin-2-amine], for which the IC50 lay within 500 to 5000 nM.

Regarding `CC(C)c1cc(N2CCCC(O)(c3cnc4ccccn34)C2)nc(N)n1` (stereo not drawn) [Compound 243, 1-(2-amino-6-isopropylpyrimidin-4-yl)-3-(imidazo[1,2-a]pyridin-3-yl)piperidin-3-ol], the IC50 was more than 5000 nM.

`CC(C)c1cc(N2CCCC(c3ncc4ccccn34)C2)nc(N)n1` (stereo not drawn) [Compound 244, 4-(3-(imidazo[1,5-a]pyridin-3-yl)piperidin-1-yl)-6-isopropylpyrimidin-2-amine]: the IC50 fell in the range of 500 to 5000 nM.

For `CC(C)c1cc(N2CCCC(c3cnc4ncccn34)C2)nc(N)n1` (stereo not drawn) [Compound 245, 4-(3-(imidazo[1,2-a]pyrimidin-3-yl)piperidin-1-yl)-6-isopropylpyrimidin-2-amine], the IC50 was less than 500 nM. As to `Nc1cc(N2CCCC(c3n[nH]c4ccccc34)C2)nc(N)n1` (stereo not drawn) [Compound 246, 6-(3-(1H-indazol-3-yl)piperidin-1-yl)pyrimidine-2,4-diamine], the IC50 was in the range of 500 to 5000 nM.

Regarding `CC(C)c1cc(N2CCCC(c3c[nH]c4ccccc34)C2)nc(N)n1` (stereo not drawn) [Compound 249, 4-(3-(1H-indol-3-yl)piperidin-1-yl)-6-isopropylpyrimidin-2-amine], the IC50 fell in the range of 500 to 5000 nM. Consider `CC(C)c1cc(N2CCCC(c3n[nH]c4ccccc34)C2)nc(N)n1` (stereo not drawn) [Compound 251, 4-(3-(1H-indazol-3-yl)piperidin-1-yl)-6-isopropylpyrimidin-2-amine], for which the IC50 lay within 500 to 5000 nM. Under `CC(C)c1cc(N2CCCC(n3c(=O)[nH]c4ccccc43)C2)nc(N)n1` (stereo not drawn) [Compound 252, 1-(1-(2-amino-6-isopropylpyrimidin-4-yl)piperidin-3-yl)-1,3-dihydro-2H-benzo[d]imidazol-2-one] stands 500 to 5000 nM. Take `CC(C)c1cc(N2CCC(c3cnc4ccccn34)C2)nc(N)n1` (stereo not drawn) [Compound 253, 4-(3-(imidazo[1,2-a]pyridin-3-yl)pyrrolidin-1-yl)-6-isopropylpyrimidin-2-amine]: the IC50 was in the range of 500 to 5000 nM. In the case of `CNc1cc(N2CCCC(n3ncc4ccccc43)C2)nc(N)n1` (stereo not drawn) [Compound 254, 6-(3-(1H-indazol-1-yl)piperidin-1-yl)-N4-methylpyrimidine-2,4-diamine], the IC50 was more than 5000 nM. Then `Nc1cc(N2CCC(c3cnc4ccccn34)C2)nc(N)n1` (stereo not drawn) [Compound 255, 6-(3-(imidazo[1,2-a]pyridin-3-yl)pyrrolidin-1-yl)pyrimidine-2,4-diamine], with 500 to 5000 nM; and `CC(C)c1cc(N2CCCC(n3cnc4ccccc43)C2)nc(N)n1` (stereo not drawn) [Compound 256, 4-(3-(1H-benzo[d]imidazol-1-yl)piperidin-1-yl)-6-isopropylpyrimidin-2-amine], with less than 500 nM; and `Nc1cc(N2CCCC(n3c(=O)[nH]c4ccccc43)C2)nc(N)n1` (stereo not drawn) [Compound 257, 1-(1-(2,6-diaminopyrimidin-4-yl)piperidin-3-yl)-1,3-dihydro-2H-benzo[d]imidazol-2-one], with more than 5000 nM. On to `Nc1cc(N2CCCC(c3cnc4ccncn34)C2)nc(N)n1` (stereo not drawn) [Compound 258, 6-(3-(imidazo[1,2-c]pyrimidin-3-yl)piperidin-1-yl)pyrimidine-2,4-diamine], for which the IC50 is 500 to 5000 nM. Consider `CNc1cc(N2CCCC(n3nc4ccccc4n3)C2)nc(N)n1` (stereo not drawn) [Compound 259, 6-(3-(2H-benzo[d][1,2,3]triazol-2-yl)piperidin-1-yl)-N4-methylpyrimidine-2,4-diamine], for which the IC50 is more than 5000 nM.

Turning to `Nc1cc(N2CCCC(n3cnc4ccccc43)C2)nc(N)n1` (stereo not drawn) [Compound 260, 6-(3-(1H-benzo[d]imidazol-1-yl)piperidin-1-yl)pyrimidine-2,4-diamine], the IC50 is more than 5000 nM. Then `CN(C)CCCNC(=O)c1ccc(-c2cc(O)c3nc(N)ccc3c2)cc1` [Compound 261, 4-(2-amino-8-hydroxyquinolin-6-yl)-N-(3-(dimethylamino)propyl)benzamide], with less than 500 nM.

As to `CN(C)CCCNC(=O)c1nnc(-c2cc(O)c3ncccc3c2)[nH]1` [Compound 262, N-(3-(dimethylamino)propyl)-5-(8-hydroxyquinolin-6-yl)-4H-1,2,4-triazole-3-carboxamide], the IC50 is less than 500 nM. Then `CN(C)[C@H]1C[C@@H](NC(=O)c2csc(-c3cc(O)c4ncccc4c3)c2)C1` [Compound 264, N-(cis-3-(dimethylamino)cyclobutyl)-5-(8-hydroxyquinolin-6-yl)thiophene-3-carboxamide], with less than 500 nM. In the case of `CN(C)CCCNC(=O)c1ccc(-c2cc(O)c3nccc(N)c3c2)cc1` [Compound 265, 4-(4-amino-8-hydroxyquinolin-6-yl)-N-(3-(dimethylamino)propyl)benzamide], the IC50 fell in the range of 500 to 5000 nM. As to `Nc1nccc2c(O)cc(-c3cccc(C(=O)N4CCCC4)c3)cc12` [Compound 266, (3-(1-amino-5-hydroxyisoquinolin-7-yl)phenyl)(pyrrolidin-1-yl)methanone], the IC50 was more than 5000 nM.

Regarding `CN(C)CCNC(=O)c1ccc(-c2cc(O)c3ncnc(N)c3c2)cc1` [Compound 267, 4-(4-amino-8-hydroxyquinazolin-6-yl)-N-(2-(dimethylamino)ethyl)benzamide], the IC50 was less than 500 nM. Then `CN(C)CCNC(=O)c1csc(-c2cc(O)c3ncccc3c2)c1` [Compound 268, N-(2-(dimethylamino)ethyl)-5-(8-hydroxyquinolin-6-yl)thiophene-3-carboxamide], with less than 500 nM; and `CN(C)CCCNC(=O)c1cc(-c2cc(O)c3ncccc3c2)c[nH]1` [Compound 269, N-(3-(dimethylamino)propyl)-4-(8-hydroxyquinolin-6-yl)-1H-pyrrole-2-carboxamide], with less than 500 nM; and `CN(C)CCNC(=O)c1ccc(-c2cc(O)c3ncncc3c2)cc1` [Compound 270, N-(2-(dimethylamino)ethyl)-4-(8-hydroxyquinazolin-6-yl)benzamide], with less than 500 nM. `CN(C)CCCNC(=O)c1ncc(-c2cc(O)c3ncccc3c2)cn1` [Compound 271, N-(3-(dimethylamino)propyl)-5-(8-hydroxyquinolin-6-yl)pyrimidine-2-carboxamide]: the IC50 is less than 500 nM. On to `CN(C)CCCNC(=O)c1ncc(-c2cc(O)c3ncccc3c2)s1` [Compound 272, N-(3-(dimethylamino)propyl)-5-(8-hydroxyquinolin-6-yl)thiazole-2-carboxamide], for which the IC50 was less than 500 nM.

Regarding `CN(C)CCCNC(=O)c1ccc(-c2cc(O)c3ncc(=O)[nH]c3c2)cc1` [Compound 273, N-(3-(dimethylamino)propyl)-4-(8-hydroxy-3-oxo-3,4-dihydroquinoxalin-6-yl)benzamide], the IC50 was 500 to 5000 nM.

For `CN(C)CCCNC(=O)c1cnc(-c2cc(O)c3ncccc3c2)s1` [Compound 274, N-(3-(dimethylamino)propyl)-2-(8-hydroxyquinolin-6-yl)thiazole-5-carboxamide], the IC50 was less than 500 nM.
